Source: ChEMBL document CHEMBL1201862, “PubChem BioAssay data set” (2004)
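Dose response: 5 concentrations. Exposure: 48 h. Format: 96-well plates. Endpoint: linear interpolation; highest concentration if not reached. GI50: concentration for 50% inhibition of growth.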 Calls of active or inactive are those of the source. No stated cut-off is given here; in the data, active = GI50 up to about 1.1 µM and inactive = higher.

Legend:
Assay in all cases: NCI-60 cell line screen, 48 h
[1] = test system: DU-145
[2] = test system: TK-10
[3] = test system: Malme-3M
[4] = test system: LOX IMVI
[5] = test system: Hs-578T
[6] = test system: SK-OV-3
[7] = test system: SF-539
[8] = test system: OVCAR-5
[9] = test system: HT-29
[10] = test system: MCF7
[11] = test system: A549
[12] = test system: NCI-H460
[13] = test system: SR
[14] = test system: CCRF-CEM
[15] = test system: RXF 393
[16] = test system: RPMI-8226
[17] = test system: SNB-75
[18] = test system: UO-31
[19] = test system: SF-268
[20] = test system: KM12

SMILES | GI50 [1] | GI50 [2] | GI50 [3] | GI50 [4] | GI50 [5] | GI50 [6] | GI50 [7] | GI50 [8] | GI50 [9] | GI50 [10] | GI50 [11] | GI50 [12] | GI50 [13] | GI50 [14] | GI50 [15] | GI50 [16] | GI50 [17] | GI50 [18] | GI50 [19] | GI50 [20]
CCOC(=O)c1cnc2oc3ccc(O)cc3c2c1-c1ccccc1 | > 100 µM (inactive) | > 100 µM (inactive) | 23 µM (inactive) | 21.6 µM (inactive) | 20.6 µM (inactive) | 15.8 µM (inactive) | 17.3 µM (inactive) | > 100 µM (inactive) | 71.6 µM (inactive) | 44.7 µM (inactive) | 32.4 µM (inactive) | 13.2 µM (inactive) | 22.6 µM (inactive) | 16.4 µM (inactive) | 41.1 µM (inactive) | 8.73 µM (inactive) | – | – | – | –
Cc1ccnc2c1ccc1nc3ccccc3n12 | > 100 µM (inactive) | > 100 µM (inactive) | – | > 100 µM (inactive) | 25.8 µM (inactive) | – | 58.9 µM (inactive) | > 100 µM (inactive) | 77.4 µM (inactive) | 4.45 µM (inactive) | > 100 µM (inactive) | 45.6 µM (inactive) | 44.7 µM (inactive) | > 100 µM (inactive) | 56.2 µM (inactive) | > 100 µM (inactive) | 31.7 µM (inactive) | 30.6 µM (inactive) | 25.1 µM (inactive) | 22 µM (inactive)
CCOc1cc(/C=C2\N=C(c3ccccc3)N(c3nc4ccccc4s3)C2=O)ccc1O | 45.1 µM (inactive) | 56.9 µM (inactive) | – | 37.2 µM (inactive) | 29 µM (inactive) | > 100 µM (inactive) | 50 µM (inactive) | > 100 µM (inactive) | 64.1 µM (inactive) | 33.3 µM (inactive) | – | 29.2 µM (inactive) | 29.9 µM (inactive) | 34.3 µM (inactive) | > 100 µM (inactive) | 21.6 µM (inactive) | 51.2 µM (inactive) | 49 µM (inactive) | 42 µM (inactive) | 48.8 µM (inactive)
O=C1CN(c2cccc(Cl)c2)C(=O)CN1CCN1CC(=O)N(c2cccc(Cl)c2)CC1=O | > 100 µM (inactive) | > 100 µM (inactive) | > 100 µM (inactive) | – | > 100 µM (inactive) | > 100 µM (inactive) | > 100 µM (inactive) | > 100 µM (inactive) | > 100 µM (inactive) | > 100 µM (inactive) | > 100 µM (inactive) | > 100 µM (inactive) | > 100 µM (inactive) | > 100 µM (inactive) | > 100 µM (inactive) | > 100 µM (inactive) | > 100 µM (inactive) | > 100 µM (inactive) | > 100 µM (inactive) | > 100 µM (inactive)
CC(=O)c1c(O)cc(O)c(-c2c(C)cc(O)c3c2C(=O)c2cccc(O)c2C3=O)c1O | 16.3 µM (inactive) | 15.8 µM (inactive) | 11.9 µM (inactive) | 12.8 µM (inactive) | 7.48 µM (inactive) | 13.1 µM (inactive) | 15.3 µM (inactive) | 17.3 µM (inactive) | 17.1 µM (inactive) | 14.8 µM (inactive) | 14.6 µM (inactive) | 15 µM (inactive) | 16.3 µM (inactive) | – | – | 7.76 µM (inactive) | 15.2 µM (inactive) | 14.5 µM (inactive) | 15.1 µM (inactive) | 16.2 µM (inactive)
COC(=O)C1C=CN(N(C)C)C2=C1C(=O)c1c(O)cccc1C2=O (stereo unspecified) | 1.58 µM (inactive) | 4.27 µM (inactive) | 1.53 µM (inactive) | – | 2.69 µM (inactive) | 6.19 µM (inactive) | – | 2.42 µM (inactive) | 1.49 µM (inactive) | 1.95 µM (inactive) | 2.47 µM (inactive) | 1.04 µM (active) | 0.152 µM (active) | 2.22 µM (inactive) | 2.79 µM (inactive) | 0.887 µM (active) | 1.66 µM (inactive) | 3.82 µM (inactive) | 3.83 µM (inactive) | 2.07 µM (inactive)
CCOc1ccc2nc3nc(O)nc(C)c3c(NCCCN(CC)CC)c2c1 | > 100 µM (inactive) | > 100 µM (inactive) | > 100 µM (inactive) | > 100 µM (inactive) | > 100 µM (inactive) | > 100 µM (inactive) | > 100 µM (inactive) | > 100 µM (inactive) | > 100 µM (inactive) | > 100 µM (inactive) | > 100 µM (inactive) | > 100 µM (inactive) | – | > 100 µM (inactive) | > 100 µM (inactive) | – | > 100 µM (inactive) | > 100 µM (inactive) | > 100 µM (inactive) | > 100 µM (inactive)
COc1cc(COC(=O)N2CSCC2C(=O)O)c([N+](=O)[O-])cc1OC (stereo unspecified) | > 100 µM (inactive) | – | > 100 µM (inactive) | – | > 100 µM (inactive) | > 100 µM (inactive) | > 100 µM (inactive) | > 100 µM (inactive) | > 100 µM (inactive) | > 100 µM (inactive) | > 100 µM (inactive) | > 100 µM (inactive) | > 100 µM (inactive) | > 100 µM (inactive) | – | > 100 µM (inactive) | > 100 µM (inactive) | > 100 µM (inactive) | > 100 µM (inactive) | > 100 µM (inactive)
COc1cc([C@@H]2c3cc4c(cc3[C@@H](OC3OC5COC(C)OC5C(OC(=O)CN5CCN(C)CC5)C3OC(=O)CN3CCN(C)CC3)C3COC(=O)[C@@H]32)OCO4)cc(OC)c1OC(=O)CN1CCN(C)CC1 (stereo partly specified) | 44.7 µM (inactive) | > 100 µM (inactive) | 61.7 µM (inactive) | 36.5 µM (inactive) | 56 µM (inactive) | > 100 µM (inactive) | 23.1 µM (inactive) | > 100 µM (inactive) | > 100 µM (inactive) | 10.8 µM (inactive) | – | 11.2 µM (inactive) | – | 9.29 µM (inactive) | > 100 µM (inactive) | – | 28.5 µM (inactive) | 68.9 µM (inactive) | 75.3 µM (inactive) | > 100 µM (inactive)
CCOC(=O)CC(=O)N(c1ccc(OC)cc1)C(C(=O)OC)c1ccccc1 (stereo unspecified) | > 100 µM (inactive) | > 100 µM (inactive) | – | > 100 µM (inactive) | > 100 µM (inactive) | – | > 100 µM (inactive) | > 100 µM (inactive) | > 100 µM (inactive) | > 100 µM (inactive) | > 100 µM (inactive) | > 100 µM (inactive) | > 100 µM (inactive) | > 100 µM (inactive) | – | > 100 µM (inactive) | 61 µM (inactive) | 96.2 µM (inactive) | > 100 µM (inactive) | > 100 µM (inactive)
CN(/N=C/c1ccccc1O)c1ccc2ccccc2n1 | 20.1 µM (inactive) | 22.2 µM (inactive) | 21.6 µM (inactive) | 30.8 µM (inactive) | 26.7 µM (inactive) | 16.3 µM (inactive) | 22.6 µM (inactive) | 41.2 µM (inactive) | 29.8 µM (inactive) | 2.61 µM (inactive) | 16.3 µM (inactive) | 22.9 µM (inactive) | 19.7 µM (inactive) | 12.9 µM (inactive) | 30.8 µM (inactive) | 35.6 µM (inactive) | – | 20.8 µM (inactive) | 22.5 µM (inactive) | 21.3 µM (inactive)
O=c1[nH]c(Nc2nc3ccccc3[nH]2)nc2c1CCC2 | > 100 µM (inactive) | > 100 µM (inactive) | > 100 µM (inactive) | > 100 µM (inactive) | 22.6 µM (inactive) | 41.8 µM (inactive) | 42.7 µM (inactive) | > 100 µM (inactive) | > 100 µM (inactive) | > 100 µM (inactive) | > 100 µM (inactive) | > 100 µM (inactive) | 28 µM (inactive) | > 100 µM (inactive) | 96.4 µM (inactive) | – | 30 µM (inactive) | > 100 µM (inactive) | 43.6 µM (inactive) | –
CCCCCCCCCCCC1=C(O)C(=O)C(CC2=C(O)C(=O)C(CCCCCCCCCCC)=C(O)C2=O)=C(O)C1=O | > 100 µM (inactive) | 46.6 µM (inactive) | 44 µM (inactive) | > 100 µM (inactive) | 22.8 µM (inactive) | 50.9 µM (inactive) | > 100 µM (inactive) | > 100 µM (inactive) | > 100 µM (inactive) | > 100 µM (inactive) | > 100 µM (inactive) | > 100 µM (inactive) | 19.2 µM (inactive) | 21.2 µM (inactive) | 3.19 µM (inactive) | – | 14.9 µM (inactive) | > 100 µM (inactive) | 26.5 µM (inactive) | > 100 µM (inactive)
CC12O[C@]3([C@H](C(=O)N4CCOC43C)[C@H]1Cl)[C@H]1O[C@H]12 (stereo partly specified) | > 100 µM (inactive) | > 100 µM (inactive) | – | > 100 µM (inactive) | > 100 µM (inactive) | > 100 µM (inactive) | > 100 µM (inactive) | > 100 µM (inactive) | > 100 µM (inactive) | > 100 µM (inactive) | > 100 µM (inactive) | > 100 µM (inactive) | 51.4 µM (inactive) | – | – | 94.8 µM (inactive) | > 100 µM (inactive) | > 100 µM (inactive) | > 100 µM (inactive) | > 100 µM (inactive)
CC(=O)O[C@H]1C(=O)O[C@@H]2C[C@H]3C(C)=CC(=O)[C@@H](O)[C@]3(C)[C@H]3[C@@]4(O)OC[C@]32[C@@H]1[C@@H](C)[C@H]4O | 0.0321 µM (active) | < 0.0234 µM (active) | 0.0232 µM (active) | 0.0321 µM (active) | 0.0175 µM (active) | 0.524 µM (active) | 0.0246 µM (active) | 0.348 µM (active) | 0.0518 µM (active) | 0.0294 µM (active) | – | – | – | 0.0328 µM (active) | 0.0301 µM (active) | 0.0286 µM (active) | 0.0366 µM (active) | 0.53 µM (active) | 0.0432 µM (active) | 0.0318 µM (active)
